Results reported in patent publication US9789127B2, “N-acyl-phosphatidyl-ethanolamines and/or mixtures of N-acyl-ethanolamines with phosphatidic acids or lysophosphatidic acids” (HUNZA DI PISTOLESI ELVIRA & C. S.A.S., priority 2003, dated 2017).

Experiments:
[1] = tested on: hepatic mitochondria; test: Functionality of hepatic mitochondria: hepatocellular O2 consumption; type: in vivo, rat; conditions: rats after 20 day diet treatment
Experimental: (§1) In the experimental tests, the rats were given a high-calorie, high-triglyceride, high-cholesterol diet. The following parameters were evaluated after twenty days treatment: • 1) effect of the compositions on the lipoperoxide levels in the plasma, liver, brain and heart; • 2) effect of the compositions on variations in body weight; • 3) effect of the compositions on variations in membrane fluidity of ghost erythrocytes and plasma platelets; • 4) effect of the compositions on the functionality of the hepatic mitochondria, evaluated by measuring: a) O2 consumption; b) reduced glutathione; c) the potential of the mitochondrial membranes; • 5) effect of the compositions on plasma levels of total cholesterol and HDL-cholesterol; • 6) effect of the compositions on plasma levels of total triglycerides.
(§2) 80 Male rats weighing 150-200 g each were used. […] The animals were given the same diet as the controls for 20 days, except that 50 mg of NOPE and 25 mg of B.F. (corresponding to ˜75 mg of the preparation described in example 6) replaced the same quantity of olive oil (olive oil used: 4.825%). • 7th group: treated with green tea bioflavones (B.F.). The animals were given the same diet as the controls for 20 days, except that 25 mg of B.F. replaced the same quantity of olive oil (olive oil used: 4.875%). […]

[2] = tested on: hepatic mitochondria; test: Functionality of hepatic mitochondria: mitochondrial membrane potential; type: in vivo, rat; conditions: control rats at time 0 = 100%; rats after 20 day diet treatment
Experimental: as §1, §2

[3] = Variation in body weight of rats on the diet; type: in vivo, rat; conditions: rats after 20 day diet treatment
Experimental: as §1
(§3) 80 Male rats weighing 150-200 g each were used. […] The animals were given the same diet as the controls for 20 days, except that 50 mg of NOPE and 25 mg of B.F. (corresponding to ˜75 mg of the preparation described in example 6) replaced the same quantity of olive oil (olive oil used: 4.825%). • 7th group: treated with green tea bioflavones (B.F.). The animals were given the same diet as the controls for 20 days, except that 25 mg of B.F. replaced the same quantity of olive oil (olive oil used: 4.875%).

[4] = tested on: ghost erythrocytes; test: Membrane fluidity of ghost erythrocytes (TMA-DPH fluorescent probe) of rats on a high-calorie, high-fat, high-cholesterol diet; type: in vivo, rat; conditions: expressed as a % of the control values at time 0; rats after 20 day diet treatment, substance in the diet
Experimental: as §1, §2

[5] = tested on: plasma platelets; test: Membrane fluidity of plasma platelets (TMA-DPH fluorescent probe) of rats on a high-calorie, high-fat, high-cholesterol diet; type: in vivo, rat; conditions: expressed as a % of the control values at time 0; rats after 20 day diet treatment, substance in the diet
Experimental: as §1, §2

[6] = Experimental tests on rats, 20 day diet treatment: overall assessment of Tables I-IV; type: in vivo, rat; conditions: oral administration, 20 days
Experimental: as §1, §3

[7] = Diet treatment tests carried out on man; type: in vivo; conditions: oral administration
Source text: A series of experimental tests on rats and clinical tests on man have been carried out to study the pharmacological and/or dietetic characteristics of the composition of the invention.
In all the diet treatment tests carried out on man, the effects obtainable by orally the formulations claimed by the invention (NAPE; NAE+PA; NAE+LPA; NAPE+B.F. and NAE plus PA and/or LPA+B.F.) always provided highly significant results and advantages, both in preventing biological signs of aging (improvement in mitochondrial activity, better membrane fluidity, improvement in plasma antioxidant defences, and limited weight increase) and improving the clinical parameters tested in relation to prevention of aging, and many of the metabolic disorders associated therewith.

[8] = tested on: lipoperoxide levels (malonyldialdehyde, MDA); test: Lipoperoxide levels (malonyldialdehyde) in plasma, liver, brain and heart of rats on the diet; type: in vivo, rat; conditions: rats after 20 day diet treatment
Experimental: as §1
(§4) 80 Male rats weighing 150-200 g each were used. The animals were divided into 8 groups of 10 animals: • 1st group: control (C); 10 animals (control at time 0) were used as is, and 10 were given a standard high-calorie, high-fat, high-cholesterol diet for 20 days, consisting of: • casein: 20%; mixture of trace elements and mineral salts: 3.5%; mixture of vitamins: 0.1%; choline bitartrate: 0.2%; cellulose: 2%; cholesterol: 0.5%; sodium cholate: 0.25%; saccharose: 58.44%, lard: 10.0% and olive oil: 4.9%. • 2nd group: treated with N-oleoyl-ethanolamine as such (NOE); the animals were given the same diet as the controls for 20 days, except that 50 mg of NOE replaced the same quantity of olive oil (olive oil used: 4.85%). • 3rd group: treated with N-oleoyl-phosphatidylethanolamine prepared as described in example 1 (NOPE); the animals were given the same diet as the controls for 20 days, except that 50 mg of NOPE (prepared as described in example 1) replaced the same quantity of olive oil (olive oil used: 4.85%). • 4th group: treated with N-oleoyl-ethanolamine+phosphatidic acid prepared as described in example 2: (NOE+PA); the animals were given the same diet as the controls for 20 days, except that 400 mg of the preparation described in example 2 (containing ˜50 mg of NOE and 150 mg of PA) replaced the same quantity of olive oil (olive oil used: 4.50%). • 5th group: treated with N-oleoyl-ethanolamine+lysophosphatidic acid prepared as described in example 3: (NOE+LPA); the animals were given the same diet as the controls for 20 days, except that 150 mg of the preparation described in example 3 (containing ˜50 mg of NOE and 100 mg of LPA) replaced the same quantity of olive oil (olive oil used: 4.75%). • 6th group: treated with “phosphobioflavonic complexes” of N-oleoyl-phosphatidylethanolamine and green tea bioflavones (B.F.) prepared as described in example 6 (NOPE+B.F.). The animals were given the same diet as the controls for 20 days, except that 50 mg of NOPE and 25 mg of B.F. (corresponding to ˜75 mg of the preparation described in example 6) replaced the same quantity of olive oil (olive oil used: 4.825%). • 7th group: treated with green tea bioflavones (B.F.). The animals were given the same diet as the controls for 20 days, except that 25 mg of B.F. replaced the same quantity of olive oil (olive oil used: 4.875%).
Malonyldialdehyde is assayed in accordance with the procedure described by K. Yagi et al., 1982, in “Lipid Peroxides in Biology and Medicine”, Academic Press, New York, 99.324-340.

[9] = tested on: hepatic mitochondria; test: Functionality of hepatic mitochondria: reduced hepatocellular glutathione content; type: in vivo, rat; conditions: rats after 20 day diet treatment
Experimental: as §1, §2

[10] = Plasma total cholesterol, HDL cholesterol and triglyceride levels of rats on the diet; type: in vivo, rat; conditions: rats after 20 day diet treatment
Experimental: as §1, §4

Molecule	Hepatocellular O2 consumption [1]	Mitochondrial membrane potential [2] [%]	Body weight [3] [gm]	Membrane fluidity (ghost erythrocytes) [4] [%]	Membrane fluidity (plasma platelets) [5] [%]	Statistical significance of the effects of Tables I-IV (membrane fluidity, antioxidant defences, body weight, cholesterol and triglycerides, mitochondria) [6]	Benefit in preventing biological signs of aging and improving clinical parameters [7]	MDA BRAIN [8]	MDA HEART [8]	MDA LIVER [8]	MDA PLASMA [8]	Reduced glutathione [9] [nmoles × 10^6 cells]	HDL cholesterol [10] [mg/dL]	Total cholesterol [10] [mg/dL]	Total triglycerides [10] [mg/dL]
CCCCCCCC/C=C\CCCCCCCC(=O)NCCO [NOE, N-oleoyl-ethanolamine]	368 ± 52 umoles O2/min per 10^7 cells	70	221 ± 16	72	70	no statistically significant benefit	no significant benefit	106 ± 7 nmoles of malonyldialdehyde (MDA) per gram of tissue	44 ± 9 nmoles of malonyldialdehyde (MDA) per gram of tissue	44.1 ± 8.2 nmoles of malonyldialdehyde (MDA) per gram of tissue	5.0 ± 0.6 nmoles of malonyldialdehyde (M	36 ± 6	28.9 ± 2.8	120.4 ± 12.7	80.5 ± 6.8
N-oleoyl-phosphatidylethanolamine [NOPE]	408 ± 62 umoles O2/min per 10^7 cells	81	209 ± 18	84	81	always statistically significant		85 ± 9 nmoles of malonyldialdehyde (MDA) per gram of tissue	32 ± 7 nmoles of malonyldialdehyde (MDA) per gram of tissue	33.1 ± 6.5 nmoles of malonyldialdehyde (MDA) per gram of tissue	3.8 ± 0.4 nmoles of malonyldialdehyde (M	41 ± 5	31.6 ± 3.9	110.3 ± 10.1	71.4 ± 8.7
